Laboratory results published in article PMC4655838, “Versatility in phospho-dependent molecular recognition of the XRCC1 and XRCC4 DNA-damage scaffolds by aprataxin-family FHA domains” (DNA Repair, 2015).
Like-named read-outs stand apart in the source and are kept apart here. Square brackets hold non-standard residues; d marks the D form. Peptide text beside a SMILES is read from it. pT = C[C@@H](OP(=O)(O)O)[C@H](N)C(=O)O; pS = N[C@@H](COP(=O)(O)O)C(=O)O

What was measured:
Format in all cases: binding
aprataxin FHA domain = target: T1, aprataxin FHA domain (Homo sapiens, UniProt Q7Z2E3); test: NMR (1H-SOFAST-HMQC) titrations of aprataxin FHA domain with XRCC1 phosphopeptides; settings: NMR titration, 22 °C
T1 construct: aprataxin residues 1–105; GST (pGEX-6P-1) (N, cleaved yes); made in house; host or cells: Escherichia coli BL21 (DE3)
T1 sequence (Q7Z2E3 15-119): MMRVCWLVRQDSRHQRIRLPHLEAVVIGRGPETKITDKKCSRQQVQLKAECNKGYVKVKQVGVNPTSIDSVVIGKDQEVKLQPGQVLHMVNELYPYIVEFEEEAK
Protocol: NMR experiments were carried out at 22 °C on Bruker Avance II+ 600 MHz and Avance III 700 MHz spectrometers, each equipped with a cryogenic triple-resonance probe. Protein and peptides were prepared in NMR buffer (20 mM Na Acetate pH 5.8, 50 mM NaCl, 2 mM DTT). Three-dimensional HNCA, HNCO, HNCACB and CBCA(CO)NH experiments were performed to obtain backbone assignments. NMR titration experiments were carried out by adding the unlabelled XRCC1 peptides to ^15N-labeled aprataxin FHA domain. The initial protein concentration was 92 μM and volumes of 2 mM stock solution of peptide were added until the protein:peptide ratio was 1:4. ^1H-SOFAST-HMQC [36] spectra were measured after each titration step. All spectra were processed using nmrPipe, and analysed using CARA/NEASY [38]. The weighted chemical shift change (in ppm units) of each amide proton (ΔδHN) and nitrogen (ΔδN) was calculated according to the equation: Δδtotal = [(ΔδHNWHN)^2 + (ΔδNWN)^2]^1/2 with WHN = 1 and WN = 0.154 [39]. Weighted chemical shifts for residues D37, V45, Q46, V61 and V63 were plotted against peptide concentration to determine individual Kds and averaged to determine the apparent Kd.

[1] = target: T2, wild-type APLF FHA domain (Homo sapiens, UniProt Q8IW19); test: ITC of wild-type APLF FHA domain with XRCC1 and XRCC4 phosphopeptides; settings: 22 °C, 50 mM HEPES pH 7.5, 150 mM NaCl, 5 mM β-mercaptoethanol, peptide in syringe, XRCC1 peptides 1 mM into 100 μM protein, XRCC4 peptides 300 μM into 30 μM protein, single-site model, representative of triplicate
T2 construct: APLF residues 1–106; GST (pGEX-6P-1) (N, cleaved yes); made in house; host or cells: Escherichia coli Rosetta2 (DE3)
T2 sequence (Q8IW19 1-106): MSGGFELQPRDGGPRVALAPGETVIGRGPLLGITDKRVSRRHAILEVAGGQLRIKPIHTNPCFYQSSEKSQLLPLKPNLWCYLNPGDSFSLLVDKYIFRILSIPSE
From the text: (§1) The genes for aprataxin residues 1–105 and APLF residues 1–106 were amplified using primer sets which incorporated 5′ BamHI and 3′ XhoI sites. PCR products and pGEX-6P-1 vector were digested with BamHI and XhoI and religated. All point mutations were generated using a QuickChange Site-Directed Mutagenesis Kit (Stratagene) following the manufacturer's recommended protocol.
For expression, the pGEX-6P-1/aprataxin-FHA constructs were transformed into Escherichia coli strain BL21 (DE3) and the pGEX-6P-1/APLF-FHA constructs transformed into the strain Rosetta2 (DE3). Cells were grown in LB at 37 °C to an A600 of 0.5, induced with 0.4 mM isopropyl 1-thio-β-D-galactopyranoside and incubated at 18 °C for a further 16 h before harvesting. […]
Phosphopeptides based on the XRCC1 sequence 515-YAGSTDENTDSEEHQ-529 and the XRCC4 sequence 229-YDESTDEES-237 were synthesised with amidated C-termini to avoid potential end-effects of a free carboxy-terminus by Dr. W. Mawby (University of Bristol), purified by HPLC and characterised by mass spectrometry. FHA-phosphopeptide binding was quantified by isothermal titration calorimetry using a Microcal Omega VP-ITC calorimeter (MicroCal Inc., Northampton, MA). […] Heats of dilution were subtracted and binding isotherms were plotted and analysed with MicroCal origin version 7.0, assuming a single-site binding model.

[2] = target: T3, K38A Mutant of aprataxin FHA domain (Homo sapiens, UniProt Q7Z2E3, K52A); test: ITC of K38A mutant of aprataxin FHA domain with XRCC1 and XRCC4 phosphopeptides; settings: 22 °C, 50 mM HEPES pH 7.5, 150 mM NaCl, 5 mM β-mercaptoethanol, single-site model
T3 construct: aprataxin residues 1–105; GST (pGEX-6P-1) (N, cleaved yes); made in house; host or cells: Escherichia coli BL21 (DE3)
T3 sequence (Q7Z2E3 15-119 K52A): as the sequence (Q7Z2E3 15-119) above, with K38A counted along it
From the text: as §1
(§2) For expression, the pGEX-6P-1/aprataxin-FHA constructs were transformed into Escherichia coli strain BL21 (DE3) and the pGEX-6P-1/APLF-FHA constructs transformed into the strain Rosetta2 (DE3). Cells were grown in LB at 37 °C to an A600 of 0.5, induced with 0.4 mM isopropyl 1-thio-β-D-galactopyranoside and incubated at 18 °C for a further 16 h before harvesting. Cells were lysed by sonication and clarified by centrifugation (20,000 × g × 30 min). The supernatant was applied to a glutathione-4B resin (Amersham) and cleaved from the resin with rhinovirus 3C protease. Proteins were purified further by gel-filtration chromatography on a Superdex 75 matrix in 20 mM Tris pH 7.5, 150 mM NaCl, 5 mM DTT. Selenomethionine-labelled APLF L91 M protein was expressed in Rosetta2 (DE3) cells cultured in SelenoMet base media and nutrients supplemented with seleno-methionine solution (Molecular Dimensions Ltd.) and purified as the wild-type protein.
(§3) Phosphopeptides based on the XRCC1 sequence 515-YAGSTDENTDSEEHQ-529 and the XRCC4 sequence 229-YDESTDEES-237 were synthesised with amidated C-termini to avoid potential end-effects of a free carboxy-terminus by Dr. W. Mawby (University of Bristol), purified by HPLC and characterised by mass spectrometry. FHA-phosphopeptide binding was quantified by isothermal titration calorimetry using a Microcal Omega VP-ITC calorimeter (MicroCal Inc., Northampton, MA). Protein was dialysed against ITC buffer (50 mM HEPES pH 7.5, 150 mM NaCl, 5 mM β-mercaptoethanol) and peptides were dissolved in the dialysis buffer. Experiments were carried out at 22 °C and involved 30 successive 10 μl injections of peptide solution into a sample cell containing protein solution. Titrations with XRCC1 peptides used peptide at 1 mM and protein at 100 μM and titrations with XRCC4 peptides used peptide at 300 μm and protein at 30 μM. Heats of dilution were subtracted and binding isotherms were plotted and analysed with MicroCal origin version 7.0, assuming a single-site binding model.

[3] = target: T4, wild-type aprataxin FHA domain (Homo sapiens, UniProt Q7Z2E3); test: ITC of wild-type aprataxin FHA domain with XRCC1 and XRCC4 phosphopeptides; settings: 22 °C, 50 mM HEPES pH 7.5, 150 mM NaCl, 5 mM β-mercaptoethanol, peptide in syringe, XRCC1 peptides 1 mM into 100 μM protein, XRCC4 peptides 300 μM into 30 μM protein, single-site model, representative of triplicate
T4 construct: aprataxin residues 1–105; GST (pGEX-6P-1) (N, cleaved yes); made in house; host or cells: Escherichia coli BL21 (DE3)
T4 sequence (Q7Z2E3 15-119): as the sequence (Q7Z2E3 15-119) above
From the text: as §1, §2, §3

[4] = target: T5, R42A Mutant of aprataxin FHA domain (Homo sapiens, UniProt Q7Z2E3, R56A); test: ITC of R42A mutant of aprataxin FHA domain with XRCC1 and XRCC4 phosphopeptides; settings: 22 °C, 50 mM HEPES pH 7.5, 150 mM NaCl, 5 mM β-mercaptoethanol, single-site model
T5 construct: aprataxin residues 1–105; GST (pGEX-6P-1) (N, cleaved yes); made in house; host or cells: Escherichia coli BL21 (DE3)
T5 sequence (Q7Z2E3 15-119 R56A): as the sequence (Q7Z2E3 15-119) above, with R42A counted along it
From the text: as §1, §2, §3

C[C@H](NC(=O)[C@@H](N)Cc1ccc(O)cc1)C(=O)NCC(=O)N[C@@H](COP(=O)(O)O)C(=O)N[C@H](C(=O)N[C@@H](CC(=O)O)C(=O)N[C@@H](CCC(=O)O)C(=O)N[C@@H](CC(N)=O)C(=O)N[C@H](C(=O)N[C@@H](CC(=O)O)C(=O)N[C@@H](CO)C(=O)N[C@@H](CCC(=O)O)C(=O)N[C@@H](CCC(=O)O)C(=O)N[C@@H](Cc1c[nH]cn1)C(=O)N[C@@H](CCC(N)=O)C(N)=O)[C@@H](C)OP(=O)(O)O)[C@@H](C)OP(=O)(O)O [YAGpSpTDENpTDSEEHQ] (H-YAG[pS][pT]DEN[pT]DSEEHQ-NH2)
Kd (aprataxin FHA domain; 20 mM Na Acetate pH 5.8, 50 mM NaCl, 2 mM DTT, 92 µM 15N aprataxin FHA, 2 mM peptide stock, read-out: Kd from weighted chemical shift of residue Asp37): 100 nM | Kd (aprataxin FHA domain; pH 5.8, 92 µM aprataxin FHA, read-out: Kd from weighted chemical shift of residue Gln46): 100 nM | Kd (aprataxin FHA domain; pH 5.8, 92 µM aprataxin FHA, read-out: Kd from weighted chemical shift of residue Val45): 600 nM | Kd (aprataxin FHA domain; pH 5.8, 92 µM aprataxin FHA, read-out: Kd from weighted chemical shift of residue Val61): 100 nM | Kd (aprataxin FHA domain; pH 5.8, 92 µM aprataxin FHA, read-out: Kd from weighted chemical shift of residue Val63): 500 nM | Kd (aprataxin FHA domain; pH 5.8, mean of individual Kds of D37, V45, Q46, V61, V63, read-out: Kd, Mean (SEM) over five residues (apparent Kd)): 300 nM | Kd (aprataxin FHA domain; pH 5.8, tighter binders not well defined due to high protein concentration, read-out: overall apparent affinity (Kdapp) estimated from NMR titrations): < 1000 nM | Kd [1]: 11 ± 0.5 µM | Kd [2]: 4.4 ± 0.3 µM | Kd [3]: 500 ± 50 nM | Kd [4]: 28.7 ± 1.9 µM
